{
  "source": "patent US9206173B2",
  "about": "“Heterocyclic compounds for the treatment of stress-related conditions” (OTSUKA PHARMACEUTICAL CO., LTD., priority 2009, dated 2015)",
  "key": {"human GPR10 [1]": {"target": "T1, human GPR10 (Homo sapiens (Human), UniProt P49683)", "T1 sequence (P49683 whole entry)": "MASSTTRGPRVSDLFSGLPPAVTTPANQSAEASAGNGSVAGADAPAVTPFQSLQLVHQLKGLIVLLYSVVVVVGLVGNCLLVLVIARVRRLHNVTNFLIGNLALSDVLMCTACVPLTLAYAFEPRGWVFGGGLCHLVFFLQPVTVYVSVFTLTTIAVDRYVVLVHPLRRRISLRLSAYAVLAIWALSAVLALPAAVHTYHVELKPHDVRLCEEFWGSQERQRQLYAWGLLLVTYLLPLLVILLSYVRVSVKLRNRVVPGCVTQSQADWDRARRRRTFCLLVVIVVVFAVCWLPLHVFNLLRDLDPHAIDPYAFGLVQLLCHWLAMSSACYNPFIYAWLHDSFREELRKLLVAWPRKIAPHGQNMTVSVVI", "experiment": "Inhibitory activity on binding of [3H]-PrRP to GPR10 (HEK 293 cell membrane fraction)", "settings": "[3H]-PrRP 1 nM, human GPR10-expressing HEK 293 cell membrane fraction; Ki from IC50 by Cheng-Prussoff formula", "outline": "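Competition with [3H]-PrRP (1 nM final) for membranes from human GPR10-expressing HEK293 cells, 90 min at room temperature in HEPES/EDTA buffer pH 7.4; filtration and scintillation counting.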"}, "human GPR10 [2]": {"target": "T1, human GPR10", "experiment": "Antagonistic activity on PrRP-induced intracellular calcium mobilization in human GPR10-expressing HEK293 cells", "type": "cell-based", "settings": "PrRP 1 nM-induced intracellular calcium mobilization, Fluo-8", "experimental": "Pharmacological Test 2 Antagonistic Activity on GPR10 Using Human GPR10-Expressing HEK293 Cells.\nAntagonistic activity of test compounds on PrRP-induced intracellular calcium mobilization was evaluated using GPR10-expressing HEK293 cells.\nHEK293 cells expressing human GPR10 were maintained in Dulbecco's Modified Eagles' medium supplemented with 10% fetal bovine serum, 1% penicillin-streptomycin and 20 mM HEPES at 37° C. in a 5% CO2 incubator. GPR10-expressing HEK293 cells were placed in poly-D-lysine coated 96-well culture plates and cultured for 18-24 hr before the test at a density of 3×10^4 cells/well. […] The cells were incubated with test compounds for 15 min at room temperature, and then PrRP (the final concentration, 1 nM) was added into the medium. The changes in intracellular calcium-dependent fluorescence were monitored using a fluorescence imaging plate reader (FDSS3000, Hamamatsu Photonics K.K.). Fluo-8 fluorescence was measured with excitation at 490 nm and emission at 520 nm. The calcium-dependent fluorescence intensity was calculated by subtracting basal intensity (average intensity for 30 sec before agonist stimulation) from peak intensity for 60 sec after PrRP-stimulation, and then IC50 values were determined by nonlinear curve-fitting program, GraphPad Prism 5."}},
  "data": [
    {"compound": "C[C@H](Nc1nc2c(c(=O)n1N(C)C)CN(C(=O)c1ccc(Cl)cc1)CC2)c1ccc(C(F)(F)F)cc1.Cl", "note": "[Example 6, 6-(4-chlorobenzoyl)-3-dimethylamino-2-(S)-{1-[4-(trifluoromethyl)phenyl]ethylamino}-5,6,7,8-tetrahydropyrido[4,3-d]pyrimidin-4-(3H)-one hydrochloride]", "values": [
      {"measurement": "Ki", "setting": "human GPR10 [1]", "result": 17, "unit": "nM"},
      {"measurement": "IC50", "setting": "human GPR10 [2]", "result": 187, "unit": "nM"},
      {"measurement": "melting point", "result": "116 to 118", "unit": "°C"}
    ]}
  ]
}
